Reference: paper PMC12727973, “Off-target autophagy disruption associated with a novel liver toxicity in dogs for a highly basic heterobifunctional protein degrader” (Frontiers in Pharmacology, 2025)

Legend:
[1] = test system: primary human cholangiocytes; assay: Co-treatment with V-ATPase inhibitor bafilomycin in cholangiocytes
LC3B = LC3B lipidation immunoblot in primary cholangiocytes; type: cell-based, human; conditions: 3 h, 300 μM
Method: Cells were treated with compounds at concentrations indicated for 3 h (immunoblotting), 18 h (proteomics), or 48 h (compound uptake) using DMSO vehicle content normalized across wells, up to 0.2%. 48 h was selected for compound uptake experiments to match the cell viability assay conditions; 18 h was selected for the initial assessment of proteome-wide changes leading to and accompanying cytotoxicity; 3 h to observe pathway changes with minimal confounding effects of cytotoxicity. […] Following compound incubation, cells were washed twice with phosphate buffer saline (PBS) and, except for compound uptake studies, lifted off plates with Accumax (Sigma-Aldrich A7089). Cells were pelleted at 700 × g for 5 min, washed with PBS, and pellets were stored at −80 °C for later sample preparation.
Lysate corresponding to 20 µg protein was combined with LDS Buffer (1X final, Thermo #NP0007) and 1 M dithiothreitol stock (100 mM final), heat denatured at 95 °C for 10 min, and loaded into the wells of a NuPage Bis-Tris Mini Protein Gel (Thermo #NP0321). Proteins were separated at 200 V for 30–40 min using a XCell SureLock Mini-Cell (Thermo #EI0001) and MES SDS Running Buffer (Thermo #NP0002).
Proteins were next transferred to a PVDF membrane (Thermo #IB24002) with an iBlot 2 Gel Transfer Device (Invitrogen #IB21001) using the standard 7 min method. […]

Compound	Cytotoxicity alone ([1]; BafA1 alone, longer timepoints)	Effect on Compound X-induced cytotoxicity ([1]; co-treatment with Compound X, <24 h)	Effect on LC3B lipidation by Compound X ([1]; co-treatment, 100 nM or 2.5 nM BafA1, 3 h)	LC3B-II/LC3B-I (LC3B)
CO/C1=C\C(C)=C\[C@@H](C)[C@@H](O)[C@@H](C)C/C(C)=C/C=C/[C@H](OC)[C@@H]([C@@H](C)[C@@H](O)[C@H](C)[C@@]2(O)C[C@@H](O)[C@H](C)[C@@H](C(C)C)O2)OC1=O [BafA1, Bafilomycin A1]	cytotoxic at longer timepoints	fully rescued compound-induced cytotoxicity	reduced the LC3B lipidation by Compound X	
CCN(CC)CCCC(C)Nc1ccnc2cc(Cl)ccc12 (stereo not shown) [CQ, chloroquine diphosphate]				2.1
